Data set [1] relates to SKBR3, TUBO and MDA-MB231 Cells. As to the kind of experiment: Cytotoxicity study, MTS assay. Type of data set: cell-based. To be noted: 1 and 3 hours incubation, then 72 hours; FIG. 4. On the procedure: The anti-proliferative effects of prepared liposomes containing Dox were assessed on SKBR3, TUBO and MDA-MB231 Cells using MTS assay (Promega). For this purpose, the cells were seeded at 5000 cells/well in 96 well plates. After overnight incubation, the medium was replaced with an FCS-free medium containing 1:2 serial dilutions of liposomal Dox or free Dox for scheduled incubation times (1 and 3 hours) at 37° C. The cells were washed gently in PBS and further incubated in the free drugs medium at 37° C. for 72 hours. The viability of cells was determined using a Promega MTS kit. Then, the IC50 of formulations were calculated.
For orientation: Formazan colour is commonly taken as a measure of viable cells.

Another data set deals with TUBO tumor. Kind of data set: In vivo chemotherapy study, TUBO tumor model. Further details: species or system female BALB/c mice. To be noted: 15 mg/kg; possibly acute cardiac toxicity.

Protocol for TUBO tumor: All animal experiments were conducted in compliance with the Institutional Ethical Committee and Research Advisory Committee of Mashhad University of Medical Sciences guidelines. On day 0, female BALB/c mice, aged 4-6 weeks, were given subcutaneous injections of TUBO tumor cells (5×10^5 cells per mouse) in the right flank. On day 14, tumor bearing mice with palpable size received medication via a single tail vein injection of either dextrose 5% solution as negative control or doxorubicin at 15 mg/kg encapsulated in liposomes. Mice were weighed and tumor sizes were monitored within 60 days post-injection and the experiment was terminated for those mice that felt so unwell. Kaplain-Meier event free survival probability curve was obtained for each experimental group.

Regarding `COc1cccc2c1C(=O)c1c(O)c3c(c(O)c1C2=O)C[C@@](O)(C(=O)CO)C[C@@H]3O[C@H]1C[C@H](N)[C@H](O)[C@H](C)O1.Cl` [Dox, doxorubicin hydrochloride], the “cytotoxicity (IC50) on HER2+ cell lines SKBR3 and TUBO against HER2− cell line MDA-MB-231” value in data set [1] was “no distinguishing difference between cytotoxicity of HER2^+ and HER2^− cells”. Further, the “survival of the group under conventional Dox treatment” value in the data set with TUBO tumor is on record as “died in early days”.

(Values after US20160045614A1, “TARGETED LIPOSOMAL COMPOSITION USING ANTI-HER-2 AFFIBODY MOLECULES AND APPLICATIONS THEREOF IN CANCER TREATMENT” (priority 2014, published 2016).)
